Test results published in ChEMBL document CHEMBL5291721, “A preclinical secondary pharmacology resource illuminates target-adverse drug reaction associations of marketed drugs” (Nat Commun, 2023).

Legend:
[1] = target: T1, Neuropeptide Y receptor type 1 (Homo sapiens, UniProt P25929)
T1 sequence (P25929 whole entry): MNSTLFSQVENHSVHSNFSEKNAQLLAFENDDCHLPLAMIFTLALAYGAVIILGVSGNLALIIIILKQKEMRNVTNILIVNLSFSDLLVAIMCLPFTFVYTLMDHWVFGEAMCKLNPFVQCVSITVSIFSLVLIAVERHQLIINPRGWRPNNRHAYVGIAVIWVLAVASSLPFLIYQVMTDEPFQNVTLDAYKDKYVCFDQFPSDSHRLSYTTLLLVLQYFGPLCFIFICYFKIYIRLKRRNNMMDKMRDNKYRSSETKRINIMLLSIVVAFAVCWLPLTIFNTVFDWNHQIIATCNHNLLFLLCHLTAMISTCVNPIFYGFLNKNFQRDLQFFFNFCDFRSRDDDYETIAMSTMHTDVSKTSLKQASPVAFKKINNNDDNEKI

[2] = target: T2, Muscarinic acetylcholine receptor M1 (Homo sapiens, UniProt P11229); format: functional
T2 sequence (P11229 whole entry): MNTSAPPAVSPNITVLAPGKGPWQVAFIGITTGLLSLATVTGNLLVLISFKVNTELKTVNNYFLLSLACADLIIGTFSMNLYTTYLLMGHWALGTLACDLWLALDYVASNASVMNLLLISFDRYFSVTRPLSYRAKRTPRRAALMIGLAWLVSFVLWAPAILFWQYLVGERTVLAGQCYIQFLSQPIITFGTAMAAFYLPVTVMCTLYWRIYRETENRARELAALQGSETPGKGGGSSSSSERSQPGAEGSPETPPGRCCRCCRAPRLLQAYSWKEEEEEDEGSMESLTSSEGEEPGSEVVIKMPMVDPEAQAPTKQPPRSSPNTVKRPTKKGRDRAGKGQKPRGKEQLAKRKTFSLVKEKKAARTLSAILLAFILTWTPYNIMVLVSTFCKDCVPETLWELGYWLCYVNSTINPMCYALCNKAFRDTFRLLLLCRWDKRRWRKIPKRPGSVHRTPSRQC

Progesterone receptor [3] = target: T3, Progesterone receptor (Homo sapiens, UniProt P06401); format: functional
T3 sequence (P06401 whole entry): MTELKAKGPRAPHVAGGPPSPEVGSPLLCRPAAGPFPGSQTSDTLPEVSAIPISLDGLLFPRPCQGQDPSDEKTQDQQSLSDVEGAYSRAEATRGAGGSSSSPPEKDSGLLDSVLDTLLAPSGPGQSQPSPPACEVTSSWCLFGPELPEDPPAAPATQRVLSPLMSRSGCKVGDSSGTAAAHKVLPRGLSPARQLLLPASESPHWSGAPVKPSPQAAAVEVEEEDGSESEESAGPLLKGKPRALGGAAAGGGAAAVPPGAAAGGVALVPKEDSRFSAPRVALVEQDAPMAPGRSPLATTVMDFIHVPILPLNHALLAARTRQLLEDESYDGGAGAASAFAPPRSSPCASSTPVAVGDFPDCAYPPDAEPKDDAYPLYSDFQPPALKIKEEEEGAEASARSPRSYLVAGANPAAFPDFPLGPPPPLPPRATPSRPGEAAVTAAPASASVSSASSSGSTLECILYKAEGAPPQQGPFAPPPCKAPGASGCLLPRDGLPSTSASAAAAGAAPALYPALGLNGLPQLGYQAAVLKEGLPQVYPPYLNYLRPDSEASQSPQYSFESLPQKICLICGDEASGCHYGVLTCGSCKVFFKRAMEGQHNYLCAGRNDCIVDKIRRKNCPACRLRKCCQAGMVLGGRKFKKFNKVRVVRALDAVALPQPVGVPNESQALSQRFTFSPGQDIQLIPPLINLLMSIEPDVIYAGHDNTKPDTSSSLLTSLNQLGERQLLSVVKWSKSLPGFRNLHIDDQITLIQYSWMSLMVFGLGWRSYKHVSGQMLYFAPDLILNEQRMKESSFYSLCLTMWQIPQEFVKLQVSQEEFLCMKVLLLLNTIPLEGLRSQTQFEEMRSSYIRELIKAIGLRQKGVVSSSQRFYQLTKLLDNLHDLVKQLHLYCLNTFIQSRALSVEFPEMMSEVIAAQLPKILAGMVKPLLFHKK

Histamine H2 receptor = Histamine H2 receptor (Homo sapiens, UniProt P25021); format: functional, cell-based
Chain of Histamine H2 receptor (P25021 whole entry): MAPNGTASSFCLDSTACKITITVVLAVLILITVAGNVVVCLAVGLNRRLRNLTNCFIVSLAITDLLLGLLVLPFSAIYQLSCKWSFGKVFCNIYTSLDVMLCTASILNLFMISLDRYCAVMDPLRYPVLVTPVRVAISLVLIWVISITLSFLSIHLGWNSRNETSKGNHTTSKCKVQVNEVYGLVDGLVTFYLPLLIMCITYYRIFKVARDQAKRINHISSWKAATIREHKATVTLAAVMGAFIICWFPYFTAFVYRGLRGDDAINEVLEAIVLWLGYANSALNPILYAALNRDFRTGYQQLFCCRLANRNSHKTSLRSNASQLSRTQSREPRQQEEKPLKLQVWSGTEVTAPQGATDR

[4] = target: Muscarinic acetylcholine receptor M3 (Homo sapiens, UniProt P20309)
Chain of Muscarinic acetylcholine receptor M3 (P20309 whole entry): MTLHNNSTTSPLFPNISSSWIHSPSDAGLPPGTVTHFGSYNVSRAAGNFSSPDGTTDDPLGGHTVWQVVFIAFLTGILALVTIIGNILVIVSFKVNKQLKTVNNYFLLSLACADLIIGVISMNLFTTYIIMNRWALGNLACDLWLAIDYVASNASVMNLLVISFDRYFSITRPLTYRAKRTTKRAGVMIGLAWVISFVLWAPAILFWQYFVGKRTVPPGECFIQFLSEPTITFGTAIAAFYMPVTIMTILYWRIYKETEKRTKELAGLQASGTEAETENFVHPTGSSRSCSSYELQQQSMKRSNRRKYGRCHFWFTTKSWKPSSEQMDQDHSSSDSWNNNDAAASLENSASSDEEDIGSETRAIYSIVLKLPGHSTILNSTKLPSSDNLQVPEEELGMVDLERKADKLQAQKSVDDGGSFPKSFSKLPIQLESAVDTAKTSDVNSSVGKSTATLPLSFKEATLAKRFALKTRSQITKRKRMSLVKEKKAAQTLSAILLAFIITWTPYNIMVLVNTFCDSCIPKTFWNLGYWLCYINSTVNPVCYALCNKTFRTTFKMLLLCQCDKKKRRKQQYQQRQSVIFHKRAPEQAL

[5] = target: 5-hydroxytryptamine receptor 2A (Homo sapiens, UniProt P28223); format: functional, cell-based
Chain of 5-hydroxytryptamine receptor 2A (P28223 whole entry): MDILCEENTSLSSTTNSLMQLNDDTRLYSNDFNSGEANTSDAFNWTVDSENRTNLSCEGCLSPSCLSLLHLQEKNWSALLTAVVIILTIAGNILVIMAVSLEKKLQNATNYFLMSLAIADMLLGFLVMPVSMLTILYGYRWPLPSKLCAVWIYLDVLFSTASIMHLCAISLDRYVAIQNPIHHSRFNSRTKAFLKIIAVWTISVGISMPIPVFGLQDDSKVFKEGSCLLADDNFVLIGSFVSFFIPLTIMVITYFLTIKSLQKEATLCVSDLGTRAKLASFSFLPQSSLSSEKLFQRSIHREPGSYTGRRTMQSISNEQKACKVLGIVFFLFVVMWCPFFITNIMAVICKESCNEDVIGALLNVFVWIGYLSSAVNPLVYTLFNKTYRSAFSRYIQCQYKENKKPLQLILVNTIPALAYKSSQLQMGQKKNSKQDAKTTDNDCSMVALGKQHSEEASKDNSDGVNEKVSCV

Thromboxane A2 receptor = target: T4, Thromboxane A2 receptor (Homo sapiens, UniProt P21731)
T4 sequence (P21731 whole entry): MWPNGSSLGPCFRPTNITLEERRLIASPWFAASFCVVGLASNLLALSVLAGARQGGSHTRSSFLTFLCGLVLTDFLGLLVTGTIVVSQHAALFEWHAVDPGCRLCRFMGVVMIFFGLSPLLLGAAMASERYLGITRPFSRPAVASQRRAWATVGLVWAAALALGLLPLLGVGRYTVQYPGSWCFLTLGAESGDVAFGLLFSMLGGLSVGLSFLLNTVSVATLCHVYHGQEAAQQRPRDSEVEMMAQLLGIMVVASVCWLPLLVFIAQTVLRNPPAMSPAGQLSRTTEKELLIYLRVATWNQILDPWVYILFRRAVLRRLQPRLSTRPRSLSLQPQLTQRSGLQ

Mu-type opioid receptor = Mu-type opioid receptor (Homo sapiens, UniProt P35372)
Chain of Mu-type opioid receptor (P35372 whole entry): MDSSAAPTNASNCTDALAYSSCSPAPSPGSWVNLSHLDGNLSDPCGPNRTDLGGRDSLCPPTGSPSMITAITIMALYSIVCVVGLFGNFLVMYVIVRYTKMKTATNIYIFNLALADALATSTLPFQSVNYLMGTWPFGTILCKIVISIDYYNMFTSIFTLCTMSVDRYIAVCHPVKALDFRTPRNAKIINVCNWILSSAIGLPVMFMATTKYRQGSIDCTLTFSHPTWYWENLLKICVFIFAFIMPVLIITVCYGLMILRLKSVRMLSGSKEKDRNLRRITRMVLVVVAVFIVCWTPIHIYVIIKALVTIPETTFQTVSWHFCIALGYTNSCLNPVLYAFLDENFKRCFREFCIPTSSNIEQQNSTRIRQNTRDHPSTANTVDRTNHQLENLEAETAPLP

Progesterone receptor [6] = target: T3, Progesterone receptor
[7] = target: cGMP-inhibited 3',5'-cyclic phosphodiesterase 3A (Homo sapiens, UniProt Q14432); format: functional
Chain of cGMP-inhibited 3',5'-cyclic phosphodiesterase 3A (Q14432 whole entry): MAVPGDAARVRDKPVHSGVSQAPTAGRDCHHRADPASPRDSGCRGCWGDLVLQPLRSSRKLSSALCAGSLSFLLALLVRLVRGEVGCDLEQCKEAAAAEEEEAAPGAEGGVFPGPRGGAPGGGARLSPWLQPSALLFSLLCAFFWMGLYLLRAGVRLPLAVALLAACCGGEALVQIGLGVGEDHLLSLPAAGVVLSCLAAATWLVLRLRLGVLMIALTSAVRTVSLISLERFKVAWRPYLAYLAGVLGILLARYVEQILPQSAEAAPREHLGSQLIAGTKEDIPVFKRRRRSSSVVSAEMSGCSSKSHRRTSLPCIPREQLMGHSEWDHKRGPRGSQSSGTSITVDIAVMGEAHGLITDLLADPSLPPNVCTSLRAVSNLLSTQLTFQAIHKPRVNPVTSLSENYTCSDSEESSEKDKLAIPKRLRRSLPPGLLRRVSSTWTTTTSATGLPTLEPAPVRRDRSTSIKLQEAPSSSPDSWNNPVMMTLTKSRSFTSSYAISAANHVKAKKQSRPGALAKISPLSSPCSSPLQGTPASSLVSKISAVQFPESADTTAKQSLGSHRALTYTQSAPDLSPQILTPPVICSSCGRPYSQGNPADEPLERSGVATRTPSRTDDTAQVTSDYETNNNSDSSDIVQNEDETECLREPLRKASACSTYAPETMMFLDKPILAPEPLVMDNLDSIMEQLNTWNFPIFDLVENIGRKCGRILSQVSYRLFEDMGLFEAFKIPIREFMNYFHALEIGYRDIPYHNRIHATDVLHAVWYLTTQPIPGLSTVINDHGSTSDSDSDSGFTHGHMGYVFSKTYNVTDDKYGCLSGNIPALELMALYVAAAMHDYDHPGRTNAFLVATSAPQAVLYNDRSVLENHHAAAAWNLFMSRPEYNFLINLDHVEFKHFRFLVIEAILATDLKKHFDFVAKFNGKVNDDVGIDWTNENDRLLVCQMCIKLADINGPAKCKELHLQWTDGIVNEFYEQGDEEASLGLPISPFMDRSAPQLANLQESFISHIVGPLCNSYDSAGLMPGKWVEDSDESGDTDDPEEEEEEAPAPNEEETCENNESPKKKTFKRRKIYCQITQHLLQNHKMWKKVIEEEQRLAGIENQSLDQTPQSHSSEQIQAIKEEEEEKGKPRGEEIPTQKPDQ

[8] = target: T2, Muscarinic acetylcholine receptor M1; format: functional, cell-based
Also: assay procedure not described here.

| Compound | AC50 [1] | AC50 [2] | AC50 (Progesterone receptor [3]) | AC50 (Histamine H2 receptor) | AC50 [4] | AC50 [5] | AC50 (Thromboxane A2 receptor) | AC50 (Mu-type opioid receptor) | AC50 (Progesterone receptor [6]) | AC50 [7] | AC50 [8] |
| --- | --- | --- | --- | --- | --- | --- | --- | --- | --- | --- | --- |
| CCCCN1C[C@H](O)[C@@H](O)[C@H](O)[C@H]1CO | > 30 µM | > 30 µM | > 30 µM | > 30 µM | > 30 µM | > 30 µM | > 30 µM | – | – | – | – |
| CN(C)CCC=C1c2ccccc2C(C)(C)c2ccccc21 | – | 0.129 µM | > 30 µM | – | 0.38 µM | 4.5 µM | – | – | – | – | – |
| Nc1nc(NC2CC2)c2ncn([C@H]3C=C[C@@H](CO)C3)c2n1 [ABACAVIR] | > 30 µM | > 30 µM | > 30 µM | > 30 µM | > 30 µM | > 30 µM | > 30 µM | – | – | – | – |
| CC(=O)NCCCS(=O)(=O)O [ACAMPROSATE] | > 30 µM | > 30 µM | > 30 µM | > 30 µM | > 30 µM | > 30 µM | > 30 µM | – | – | – | – |
| COc1cc2nc(N(C)CCCNC(=O)C3CCCO3)nc(N)c2cc1OC (centres undefined) [ALFUZOSIN] | > 30 µM | > 30 µM | > 30 µM | > 30 µM | > 30 µM | > 30 µM | > 30 µM | – | – | – | – |
| COC(c1ccccc1)(c1ccccc1)[C@H](Oc1nc(C)cc(C)n1)C(=O)O [AMBRISENTAN] | – | – | – | – | – | – | – | > 30 µM | > 30 µM | > 30 µM | > 30 µM |
| CNC(=O)c1ccccc1Sc1ccc2c(/C=C/c3ccccn3)n[nH]c2c1 [AXITINIB] | – | > 30 µM | > 30 µM | – | > 30 µM | > 30 µM | 8.66 µM | – | – | – | – |
| CN(C)CCn1nnnc1SCC1=C(C(=O)O)N2C(=O)[C@@H](NC(=O)Cc3csc(N)n3)[C@H]2SC1 [CEFOTIAM] | – | – | – | – | – | – | – | > 30 µM | > 30 µM | > 30 µM | > 30 µM |
| CN1C(=O)CCS(=O)(=O)C1c1ccc(Cl)cc1 (centres undefined) [CHLORMEZANONE] | > 10 µM | > 30 µM | > 10 µM | > 30 µM | > 30 µM | > 10 µM | > 10 µM | – | – | – | – |
| Oc1c(Cl)cc(Cl)c2cccnc12 [CHLOROXINE] | – | – | – | – | – | – | – | > 30 µM | > 30 µM | > 30 µM | > 30 µM |
| CN(C)[C@@H](c1cccc(O)c1)[C@H]1CCCC[C@H]1O [CIRAMADOL] | – | – | – | – | – | – | – | 0.0059 µM | > 30 µM | > 30 µM | > 30 µM |
| CN(C)CC(c1ccc(O)cc1)C1(O)CCCCC1 (centres undefined) [DESVENLAFAXINE] | – | – | – | – | – | – | – | 28.4 µM | > 30 µM | > 30 µM | > 30 µM |
| CN(C)CCN1C(=O)c2ccccc2N(C)c2ccccc21 [DIBENZEPIN] | – | – | – | – | – | – | – | 28.8 µM | > 30 µM | > 30 µM | > 30 µM |
| N[C@H](C(=O)O)[C@H](O)c1ccc(O)c(O)c1 [DROXIDOPA] | – | – | – | – | – | – | – | > 30 µM | > 30 µM | > 30 µM | > 30 µM |
| O=C1Nc2ccc(Cl)cc2[C@@](C#CC2CC2)(C(F)(F)F)O1 [EFAVIRENZ] | > 30 µM | > 30 µM | 14 µM | > 10 µM | > 30 µM | > 30 µM | > 30 µM | – | – | – | – |
